Test results taken from patent publication US20090062251A1, “Novel Compounds 002” (ASTRAZENECA AB, priority 2007, published 2009).
pEC50, pKi: −log10 of the molar value.

Legend:
[1] = biological target: T1, Human CB1 receptor (hCB1) (Homo sapiens, UniProt P21554); experiment: hCB1 receptor binding (3H-CP55,940 displacement); conditions: hCB1 membranes, Ki=IC50/(1+[rad]/Kd)
T1 construct: purchased Receptor Biology
Procedure: hCB1 and hCB2 Receptor Binding
Human CB1 receptor from Receptor Biology (hCB1) or human CB2 receptor from BioSignal (hCB2) membranes are thawed at 37° C., passed 3 times through a 25-gauge blunt-end needle, diluted in the cannabinoid binding buffer (50 mM Tris, 2.5 mM EDTA, 5 mM MgCl2, and 0.5 mg/mL BSA fatty acid free, pH 7.4) and aliquots containing the appropriate amount of protein are distributed in 96-well plates. […] The total and non-specific binding are determined in the absence and presence of 0.2 μM of HU210 respectively. The plates are vortexed and incubated for 60 minutes at room temperature, filtered through Unifilters GF/B (presoaked in 0.1% polyethyleneimine) with the Tomtec or Packard harvester using 3 mL of wash buffer (50 mM Tris, 5 mM MgCl2, 0.5 mg BSA pH 7.0). The filters are dried for 1 hour at 55° C. The radioactivity (cpm) is counted in a TopCount (Packard) after adding 65 μl/well of MS-20 scintillation liquid.
Based on the above assays, the dissociation constant (Ki) for a particular compound of the invention towards a particular receptor is determined using the following equation:
[rad] is a standard or reference radioactive ligand concentration at that moment; and
Kd is the dissociation constant of the radioactive ligand towards the particular receptor.

[2] = biological target: T1, Human CB1 receptor (hCB1); experiment: hCB1 GTPγS binding; assay type: biochemical; conditions: for pEC50: hCB1 membranes, GTPγ35S, 10-point dose-response; for Emax: maximal stimulated binding determined with 10 μM Win 55,212-2
Outline: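 Human CB1 membranes in 50 mM Hepes, 100 mM NaCl, 1 mM EDTA, 5 mM MgCl2, 0.1% BSA, pH 7.4 were preincubated 5 min with GDP (30 μM final). Basal and maximal binding were defined without or with 10 μM Win 55,212-2; incubation 60 min RT; filter-bound radioactivity counted. Antagonist reversal used fixed antagonist with agonist curve, or fixed agonist with antagonist curve.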

T1 sequence (P21554 whole entry): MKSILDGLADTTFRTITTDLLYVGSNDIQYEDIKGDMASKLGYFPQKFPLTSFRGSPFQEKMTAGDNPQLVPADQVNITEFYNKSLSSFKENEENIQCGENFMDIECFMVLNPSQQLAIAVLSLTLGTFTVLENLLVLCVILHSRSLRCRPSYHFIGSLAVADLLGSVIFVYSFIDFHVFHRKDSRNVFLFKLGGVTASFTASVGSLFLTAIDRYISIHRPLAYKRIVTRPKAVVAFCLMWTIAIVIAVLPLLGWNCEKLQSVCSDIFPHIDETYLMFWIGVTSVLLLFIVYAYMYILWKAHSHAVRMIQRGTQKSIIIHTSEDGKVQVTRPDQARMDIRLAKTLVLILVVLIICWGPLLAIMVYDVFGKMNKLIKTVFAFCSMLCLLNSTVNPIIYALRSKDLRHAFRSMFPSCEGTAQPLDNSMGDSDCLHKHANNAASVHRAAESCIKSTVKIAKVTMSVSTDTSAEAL

## C[C@H](C(=O)NC1CC1)N(C)C(=O)c1ccc2c(c1)c1c(n2C)CCC(C2CCOCC2)C1 (stereo partly drawn) [N-[(1R)-1-(cyclopropylcarbamoyl)ethyl]-N,9-dimethyl-6-(oxan-4-yl)-5,6,7,8-tetrahydrocarbazole-3-carboxamide]
[1]
  pKi: 7.71
[2]
  pEC50: 7.53
  Emax: 120%

## CCNC(=O)[C@@H](C)N(C)C(=O)c1ccc2c(c1)c1c(n2C)CCC(C2CCOCC2)C1 (stereo partly drawn) [N-[(1R)-1-(ethylcarbamoyl)ethyl]-N,9-dimethyl-6-(oxan-4-yl)-5,6,7,8-tetrahydrocarbazole-3-carboxamide]
[1]
  pKi: 7.11
[2]
  pEC50: 6.63
  Emax: 112%

## Cn1c2c(c3cc(C(=O)N4CCC[C@H](NC(=O)C5CC5)C4)ccc31)CC(C1CCOCC1)CC2 (stereo partly drawn) [N-[(3S)-1-[9-methyl-6-(oxan-4-yl)5,6,7,8-tetrahydrocarbazole-3-carbonyl]-3-piperidyl]cyclopropanecarboxamide]
[1]
  pKi: 7.36
[2]
  pEC50: 7.06
  Emax: 119%

## Cn1c2c(c3cc(C(=O)N4CC(C(=O)NC5CC5)C4)ccc31)CC(C1CCOCC1)CC2 (stereo not drawn) [N-cyclopropyl-1-[9-methyl-6-(oxan-4-yl)5,6,7,8-tetrahydrocarbazole-3-carbonyl]azetidine-3-carboxamide]
[1]
  pKi: 6.97
[2]
  pEC50: 6.56
  Emax: 121%

## Cn1c2c(c3cc(C(=O)N4CCCC(C(=O)NC5CC5)C4)ccc31)CC(C1CCOCC1)CC2 (stereo not drawn) [N-cyclopropyl-1-[9-methyl-6-(oxan-4-yl)5,6,7,8-tetrahydrocarbazole-3-carbonyl]piperidine-3-carboxamide]
[1]
  pKi: 7.49
[2]
  pEC50: 6.89
  Emax: 115%

## Cn1c2c(c3cc(C(=O)N4CCC(C(=O)NC5CC5)CC4)ccc31)CC(C1CCOCC1)CC2 (stereo not drawn) [N-cyclopropyl-1-[9-methyl-6-(oxan-4-yl)5,6,7,8-tetrahydrocarbazole-3-carbonyl]piperidine-4-carboxamide]
[1]
  pKi: 6.93
[2]
  pEC50: 6.67
  Emax: 102%

## Cn1c2c(c3cc(C(=O)N4CCC(C(=O)NC5CC5)C4)ccc31)CC(C1CCOCC1)CC2 (stereo not drawn) [N-cyclopropyl-1-[9-methyl-6-(oxan-4-yl)5,6,7,8-tetrahydrocarbazole-3-carbonyl]pyrrolidine-3-carboxamide]
[1]
  pKi: 7.59
[2]
  pEC50: 7.73
  Emax: 121%

## Cn1c2c(c3cc(C(=O)N4CC[C@H](CC(=O)NC5CC5)C4)ccc31)CC(C1CCOCC1)CC2 (stereo partly drawn) [N-cyclopropyl-2-[(3R)-1-[9-methyl-6-(oxan-4-yl)5,6,7,8-tetrahydrocarbazole-3-carbonyl]pyrrolidin-3-yl]acetamide]
[1]
  pKi: 7.45
[2]
  pEC50: 7.16
  Emax: 115%

## CCNC(=O)C1CCN(C(=O)c2ccc3c(c2)c2c(n3C)CCC(C3CCOCC3)C2)C1 (stereo not drawn) [N-ethyl-1-[9-methyl-6-(oxan-4-yl)5,6,7,8-tetrahydrocarbazole-3-carbonyl]pyrrolidine-3-carboxamide]
[1]
  pKi: 6.79
[2]
  pEC50: 6.49
  Emax: 119%

## CCN(CC(=O)NCC(F)(F)F)C(=O)c1ccc2c(c1)c1c(n2S(=O)(=O)CC)CCC(C2CCOCC2)C1 (stereo not drawn) [N-ethyl-9-ethylsulfonyl-6-(oxan-4-yl)-N-(2,2,2-trifluoroethylcarbamoylmethyl)-5,6,7,8-tetrahydrocarbazole-3-carboxamide]
[1]
  pKi: 7.60
[2]
  pEC50: 7.29
  Emax: 112%

## CCN(CC(=O)NCCF)C(=O)c1ccc2c(c1)c1c(n2S(=O)(=O)CC)CCC(C2CCOCC2)C1 (stereo not drawn) [N-ethyl-9-ethylsulfonyl-N-(2-fluoroethylcarbamoylmethyl)-6-(oxan-4-yl)-5,6,7,8-tetrahydrocarbazole-3-carboxamide]
[1]
  pKi: 7.89
[2]
  pEC50: 7.89
  Emax: 107%

## CCN(CC(=O)NCCCF)C(=O)c1ccc2c(c1)c1c(n2S(=O)(=O)CC)CCC(C2CCOCC2)C1 (stereo not drawn) [N-ethyl-9-ethylsulfonyl-N-(3-fluoropropylcarbamoylmethyl)-6-(oxan-4-yl)-5,6,7,8-tetrahydrocarbazole-3-carboxamide]
[1]
  pKi: 7.62
[2]
  pEC50: 7.48
  Emax: 120%

## CCN(CC(=O)NCCCO)C(=O)c1ccc2c(c1)c1c(n2S(=O)(=O)CC)CCC(C2CCOCC2)C1 (stereo not drawn) [N-ethyl-9-ethylsulfonyl-N-(3-hydroxypropylcarbamoylmethyl)-6-(oxan-4-yl)-5,6,7,8-tetrahydrocarbazole-3-carboxamide]
[1]
  pKi: 7.34
[2]
  pEC50: 7.27
  Emax: 126%

## CCN(CC(=O)NC1COC1)C(=O)c1ccc2c(c1)c1c(n2C)CCC(C2CCOCC2)C1 (stereo not drawn) [N-ethyl-9-methyl-6-(oxan-4-yl)-N-(oxetan-3-ylcarbamoylmethyl)-5,6,7,8-tetrahydrocarbazole-3-carboxamide]
[1]
  pKi: 7.20
[2]
  pEC50: 6.89
  Emax: 117%

## CCN(CC(=O)NC(C)C)C(=O)c1ccc2c(c1)c1c(n2C)CCC(C2CCOCC2)C1 (stereo not drawn) [N-ethyl-9-methyl-6-(oxan-4-yl)-N-(propan-2-ylcarbamoylmethyl)-5,6,7,8-tetrahydrocarbazole-3-carboxamide]
[1]
  pKi: 7.50
[2]
  pEC50: 7.38
  Emax: 123%

## CCN(CC(=O)N[C@@H]1CCOC1)C(=O)c1ccc2c(c1)c1c(n2C)CCC(C2CCOCC2)C1 (stereo partly drawn) [N-ethyl-9-methyl-6-(oxan-4-yl)-N-[[(3R)-oxolan-3-yl]carbamoylmethyl]-5,6,7,8-tetrahydrocarbazole-3-carboxamide]
[1]
  pKi: 6.66
[2]
  pEC50: 6.28
  Emax: 127%

## CCN(CC(=O)N[C@H]1CCOC1)C(=O)c1ccc2c(c1)c1c(n2C)CCC(C2CCOCC2)C1 (stereo partly drawn) [N-ethyl-9-methyl-6-(oxan-4-yl)-N-[[(3S)-oxolan-3-yl]carbamoylmethyl]-5,6,7,8-tetrahydrocarbazole-3-carboxamide]
[1]
  pKi: 7.24
[2]
  pEC50: 7.00
  Emax: 122%

## CCN(CC(=O)NC)C(=O)c1ccc2c(c1)c1c(n2C)CCC(C2CCOCC2)C1 (stereo not drawn) [N-ethyl-9-methyl-N-(methylcarbamoylmethyl)-6-(oxan-4-yl)-5,6,7,8-tetrahydrocarbazole-3-carboxamide]
[1]
  pKi: 6.85
[2]
  pEC50: 6.47
  Emax: 116%

## CCN(CC(=O)NCCOC)C(=O)c1ccc2c(c1)c1c(n2C)CCC(C2CCOCC2)C1 (stereo not drawn) [N-ethyl-N-(2-methoxyethylcarbamoylmethyl)-9-methyl-6-(oxan-4-yl)-5,6,7,8-tetrahydrocarbazole-3-carboxamide]
[1]
  pKi: 6.66
[2]
  pEC50: 6.34
  Emax: 113%

## CCN(CCCCO)C(=O)c1ccc2c(c1)c1c(n2C)CCC(C2CCOCC2)C1 (stereo not drawn) [N-ethyl-N-(4-hydroxybutyl)-9-methyl-6-(oxan-4-yl)-5,6,7,8-tetrahydrocarbazole-3-carboxamide]
[1]
  pKi: 7.14
[2]
  pEC50: 6.56
  Emax: 122%

## CCNC(=O)CN(CC)C(=O)c1ccc2c(c1)c1c(n2CCF)CCC(C2CCOCC2)C1 (stereo not drawn) [N-ethyl-N-(ethylcarbamoylmethyl)-9-(2-fluoroethyl)-6-(oxan-4-yl)-5,6,7,8-tetrahydrocarbazole-3-carboxamide]
[1]
  pKi: 6.69
[2]
  pEC50: 6.36
  Emax: 109%

## CCNC(=O)CN(CC)C(=O)c1ccc2c(c1)c1c(n2C)CCC(C2CCOCC2)C1 (stereo not drawn) [N-ethyl-N-(ethylcarbamoylmethyl)-9-methyl-6-(oxan-4-yl)-5,6,7,8-tetrahydrocarbazole-3-carboxamide]
[1]
  pKi: 7.76
[2]
  pEC50: 7.48
  Emax: 121%

## CCNC(=O)CN(CC)C(=O)c1ccc2c(c1)c1c(n2C(=O)N(C)C)CCC(C2CCOCC2)C1 (stereo not drawn) [N-ethyl-N-(ethylcarbamoylmethyl)-N′,N′-dimethyl-6-(oxan-4-yl)-5,6,7,8-tetrahydrocarbazole-3,9-dicarboxamide]
[1]
  pKi: < 5.46
[2]
  pEC50: < 4.52
  Emax: > 42%

## CCN(CCCC(=O)NCCF)C(=O)c1ccc2c(c1)c1c(n2C)CCC(C2CCOCC2)C1 (stereo not drawn) [N-ethyl-N-[3-(2-fluoroethylcarbamoyl)propyl]-9-methyl-6-(oxan-4-yl)-5,6,7,8-tetrahydrocarbazole-3-carboxamide]
[1]
  pKi: 8.00
[2]
  pEC50: 8.04
  Emax: 135%

## CCN(CC(=O)NC[C@@H](C)O)C(=O)c1ccc2c(c1)c1c(n2C)CCC(C2CCOCC2)C1 (stereo partly drawn) [N-ethyl-N-[[(2R)-2-hydroxypropyl]carbamoylmethyl]-9-methyl-6-(oxan-4-yl)-5,6,7,8-tetrahydrocarbazole-3-carboxamide]
[1]
  pKi: 6.74
[2]
  pEC50: 6.50
  Emax: 124%

## CCS(=O)(=O)n1c2c(c3cc(C(=O)N4CCC(O)CC4)ccc31)CC(C1CCOCC1)CC2 (stereo not drawn) [[9-ethylsulfonyl-6-(oxan-4-yl)-5,6,7,8-tetrahydrocarbazol-3-yl]-(4-hydroxy-1-piperidyl)methanone]
[1]
  pKi: 6.81
[2]
  pEC50: 6.45
  Emax: 107%
